Laboratory results: patent US20130330358A1, “CRYSTAL STRUCTURE AND PEPTIDE INHIBITORS OF HAUSP DEUBIQUITINASE” (priority 2011, published 2013)

Assays:
[1] = test system: MCF7 (MDMX amplification); experiment: WST-1 cell growth assay, MCF7; assay type: cell-based, human; conditions: MCF7, 100 μM, compared with LnCap cells
USP8 = molecular target: T1, USP8 (Homo sapiens, UniProt P40818); assay type: biochemical; conditions: 0.25 μM purified USP8 pre-mixed with peptide 5 min
T1 sequence (P40818 1-1118): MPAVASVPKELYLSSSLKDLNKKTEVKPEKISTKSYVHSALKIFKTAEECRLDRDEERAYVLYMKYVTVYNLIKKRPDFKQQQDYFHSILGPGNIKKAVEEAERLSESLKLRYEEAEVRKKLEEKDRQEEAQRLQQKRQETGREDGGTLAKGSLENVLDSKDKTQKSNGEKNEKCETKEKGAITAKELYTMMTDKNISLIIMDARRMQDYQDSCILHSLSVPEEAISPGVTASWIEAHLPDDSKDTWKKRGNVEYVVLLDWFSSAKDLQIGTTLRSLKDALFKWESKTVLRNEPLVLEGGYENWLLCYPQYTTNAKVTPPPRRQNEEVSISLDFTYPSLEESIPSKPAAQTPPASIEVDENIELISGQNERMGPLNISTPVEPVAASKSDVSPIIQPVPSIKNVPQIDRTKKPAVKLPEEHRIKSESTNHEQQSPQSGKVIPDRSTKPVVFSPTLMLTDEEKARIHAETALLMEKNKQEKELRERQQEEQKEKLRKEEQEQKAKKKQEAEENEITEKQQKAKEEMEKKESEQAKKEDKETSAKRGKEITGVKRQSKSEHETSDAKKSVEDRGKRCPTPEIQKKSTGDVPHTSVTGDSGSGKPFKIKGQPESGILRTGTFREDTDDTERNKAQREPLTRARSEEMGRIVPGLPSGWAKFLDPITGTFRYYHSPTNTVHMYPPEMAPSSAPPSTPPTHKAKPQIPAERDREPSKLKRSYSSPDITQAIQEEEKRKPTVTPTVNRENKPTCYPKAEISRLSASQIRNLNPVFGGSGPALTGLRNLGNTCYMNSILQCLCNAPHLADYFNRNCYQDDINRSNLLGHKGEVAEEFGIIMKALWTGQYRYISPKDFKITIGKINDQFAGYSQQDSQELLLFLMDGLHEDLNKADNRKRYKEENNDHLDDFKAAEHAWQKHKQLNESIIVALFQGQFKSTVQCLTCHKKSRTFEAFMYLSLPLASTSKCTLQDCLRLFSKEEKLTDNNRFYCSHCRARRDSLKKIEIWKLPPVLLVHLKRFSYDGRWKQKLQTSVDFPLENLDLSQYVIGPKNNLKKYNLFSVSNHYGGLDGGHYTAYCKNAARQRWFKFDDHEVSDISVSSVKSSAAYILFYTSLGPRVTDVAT

HAUSP [2] = molecular target: T2, HAUSP (Homo sapiens, UniProt Q93009); experiment: In vitro DUB assay, purified HAUSP with ubiquitinated MDM2 as substrate; conditions: HAUSP preincubated with increasing amounts of peptide (FIG. 2f)
T2 sequence (Q93009 whole entry): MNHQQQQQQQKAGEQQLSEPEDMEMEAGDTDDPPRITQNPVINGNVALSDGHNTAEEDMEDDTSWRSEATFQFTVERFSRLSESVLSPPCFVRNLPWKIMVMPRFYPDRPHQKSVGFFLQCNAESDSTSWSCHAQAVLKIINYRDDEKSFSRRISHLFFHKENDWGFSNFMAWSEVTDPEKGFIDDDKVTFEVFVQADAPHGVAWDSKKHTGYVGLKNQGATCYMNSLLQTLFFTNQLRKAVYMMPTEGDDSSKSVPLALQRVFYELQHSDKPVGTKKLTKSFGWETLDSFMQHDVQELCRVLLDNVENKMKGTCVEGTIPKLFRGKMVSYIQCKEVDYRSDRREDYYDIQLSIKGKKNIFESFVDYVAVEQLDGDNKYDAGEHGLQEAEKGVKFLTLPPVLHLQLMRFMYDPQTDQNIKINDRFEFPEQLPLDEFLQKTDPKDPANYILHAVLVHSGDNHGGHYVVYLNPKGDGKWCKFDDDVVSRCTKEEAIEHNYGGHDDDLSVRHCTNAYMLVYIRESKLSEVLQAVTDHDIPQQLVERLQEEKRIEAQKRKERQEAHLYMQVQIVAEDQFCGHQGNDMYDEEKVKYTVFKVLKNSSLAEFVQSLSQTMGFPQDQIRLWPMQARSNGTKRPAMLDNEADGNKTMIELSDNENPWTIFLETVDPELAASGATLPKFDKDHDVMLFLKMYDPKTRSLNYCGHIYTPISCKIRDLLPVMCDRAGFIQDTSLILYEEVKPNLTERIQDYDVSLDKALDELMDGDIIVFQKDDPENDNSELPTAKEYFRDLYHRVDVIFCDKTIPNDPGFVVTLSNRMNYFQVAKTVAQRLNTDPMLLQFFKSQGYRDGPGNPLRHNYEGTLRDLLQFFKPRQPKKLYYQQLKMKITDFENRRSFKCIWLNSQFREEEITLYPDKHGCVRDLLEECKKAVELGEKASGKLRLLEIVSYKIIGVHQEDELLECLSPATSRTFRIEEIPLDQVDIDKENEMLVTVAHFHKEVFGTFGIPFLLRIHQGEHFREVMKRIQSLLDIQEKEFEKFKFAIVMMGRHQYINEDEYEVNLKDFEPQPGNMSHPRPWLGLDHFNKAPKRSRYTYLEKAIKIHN

[3] = test system: SJSA-1 (MDM2 amplification); experiment: WST-1 cell growth assay, SJSA-1; assay type: cell-based, human; conditions: SJSA-1, 100 μM, compared with LnCap cells
[4] = test system: p53 and its transcriptional targets p21 and MDM2; experiment: Immunoblot of p53, MDM2, p21 and HAUSP levels in PEL cells; assay type: cell-based, human; conditions: FIG. 3d
From the text: The results were quantified as mean±s.d. of the combined results from three independent experiments; Data are mean±s. e. m.; n=200-300 cells from three independent experiments. *P<0.01 and **P<0.001. A Beckman Coulter Z2 Particle Count and size analyzer (BC Z2 CS analyzer) and trypan blue staining were used to determine cell death and for cell growth analysis. […] BrdU incorporation during the S phase is quantified as percentage of stained cells. […] Data are culled from 3 independent experiments. […] Apoptosis in VG1 cells was assessed at 48 h after treatment with 10 μM Nutlin-3a or 100 μM of each peptide by Annexin V/PI staining and measured by flow cytometry analysis. […] Numbers indicate the percentage of cells in each quadrant. […] VG1 and BJAB cells were treated with the same dose as used in (b) and (c) for 6 h and aliquots of cell lysates containing […] of protein were analyzed by IB with the indicated antibody. […] Tumors were measured by in vivo bioluminescence imaging. […] The results were quantified as mean±s.d. of the combined results from three independent experiments; Data are mean±s. e. m.; n=200-300 cells from three independent experiments. *P<0.05 and **P<0.01. […]

HAUSP [5] = molecular target: T2, HAUSP; conditions: time course, K48-Ub3-7 chains, 37° C. (FIG. 2e)
[6] = molecular target: T3, HAUSP TRAF domain HAUSP^62-205 (Homo sapiens, UniProt Q93009); experiment: Size exclusion chromatography, complex formation in 5-fold excess of MDM2^137-152; assay type: binding; conditions: in the presence of a 5-fold molar excess of MDM2 peptide
T3 construct: HAUSP^62-205, and HAUSP^62-560 were fused to a hexahistidine-tag2 and expressed in E. coli BL21 (DE3) RIPL cells; hexahistidine (cleaved yes); made in house; host or cells: E. coli BL21 (DE3) RIPL
T3 sequence (Q93009 62-205): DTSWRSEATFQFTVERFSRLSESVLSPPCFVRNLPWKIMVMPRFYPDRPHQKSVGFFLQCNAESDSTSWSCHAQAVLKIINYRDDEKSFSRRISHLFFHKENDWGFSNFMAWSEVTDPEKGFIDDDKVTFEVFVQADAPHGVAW

[7] = molecular target: T3, HAUSP TRAF domain HAUSP^62-205; experiment: biochemical; assay type: binding; conditions: ITC, 20° C.; read-out: Kd
Method: FIG. 5. Typical isothermal titration calorimetric measurements of the interactions between the HAUSP TRAF domain and the vIRF4 protein derivatives or other peptides. Purified proteins and synthesized peptides were reconstituted in 150 mM NaCl and 10 mM HEPES (pH 7.0). The calorimetric assays were performed using a VPITC system. All experiments were carried out with a stirring speed of 300 rpm at 20° C., and the thermal power was recorded every 10 s. Data were analyzed using the ORIGIN software package (version 7.0). […] Each titration against the HAUSP TRAF domain is indicated in each panel.
Purified proteins and synthesized peptides (Peptron Inc., Deajeon, Korea) were reconstituted in 150 mM NaCl and 10 mM HEPES (pH 7.0). The calorimetric assays were performed using a VP-ITC system (MicroCal Inc., Northampton, Mass.). Samples were degassed by vacuum aspiration for 15 min prior to loading. All experiments were carried out with a stirring speed of 300 rpm at 20° C., and the thermal power was recorded every 10 s. Data were analyzed using the ORIGIN software package (version 7.0) supplied with the instrument. […]

Row | Compound | cell growth inhibition [1] | USP8 DUB activity (USP8) | HAUSP DUB activity against ubiquitinated MDM2 (HAUSP [2]) | cell growth inhibition [3] | HAUSP levels [4] | HAUSP DUB activity, comparative kinetic analysis (HAUSP [5]) | complex formation with the HAUSP TRAF domain [6] | Kd [7] [nM]
1 | TRQVTQASSFTWRVPG [vif2] | did not show as robust a susceptibility | neither vif1 peptide nor vif2 peptide was capable of inhibiting USP8 DUB activity | efficiently blocked HAUSP enzymatic activity | did not show as robust a susceptibility | Neither vif1 nor vif2 peptide treatment altered HAUSP levels | completely suppressed HAUSP DUB activity | – | –
2 | CC[C@H](C)[C@H](NC(=O)[C@H](Cc1c[nH]c2ccccc12)NC(=O)[C@@H](NC(=O)[C@@H](N)CO)C(C)C)C(=O)N1CCC[C@H]1C(=O)N[C@H](C(=O)N[C@@H](CC(N)=O)C(=O)N[C@@H](CCC(=O)O)C(=O)NCC(=O)N[C@@H](C)C(=O)N[C@@H](CO)C(=O)N[C@H](C(=O)N[C@@H](CO)C(=O)NCC(=O)N[C@@H](CCSC)C(=O)O)[C@@H](C)O)C(C)C [vIRF4^202-216] | did not show as robust a susceptibility | neither vif1 peptide nor vif2 peptide was capable of inhibiting USP8 DUB activity | efficiently blocked HAUSP DUB activity | did not show as robust a susceptibility | Neither vif1 nor vif2 peptide treatment altered HAUSP levels | weakly attenuated HAUSP DUB activity | formed a stable complex | –
3 | C[C@H](NC(=O)[C@@H]1CCCN1C(=O)CNC(=O)[C@H](CCC(N)=O)NC(=O)[C@@H](N)CCC(=O)O)C(=O)N[C@@H](CC(=O)O)C(=O)N[C@@H](CC(=O)O)C(=O)N1CCC[C@H]1C(=O)NCC(=O)N[C@@H](CCC(=O)O)C(=O)NCC(=O)N1CCC[C@H]1C(=O)N[C@@H](CO)C(=O)N[C@H](C(=O)NCC(=O)O)[C@@H](C)O [EBNA1^435-449, reference compound] | – | – | – | – | – | – | – | 480 ± 40
